Laboratory results taken from patent US20110178396A1, “Nicotinamide Derivatives” (CRC FOR BIOMEDICAL IMAGING DEVELOPMENT LTD., priority 2008, published 2011).
Each block holds one compound with its values, some of them ahead of it.

Tested on: B16F0 melanoma tumour
Assay: Biodistribution in B16 melanoma bearing mice
Assay type: in vivo, C57BL/6J mice
Conditions: B16 melanoma bearing mice
Experimental: Animal experiments were performed in compliance with the NHMRC Australian Code of Practice for the care and use of animals for scientific purposes. Female C57BL/6J black and BALB/c nude albino mice of 5 weeks age were obtained from the Animal Resources Centre, Western Australia. B16F0 murine melanoma cells were originally obtained from European Collection of Cell Cultures (UK) and A375 human amelanotic melanoma cells were originally obtained from American Type Culture Collection (USA). Before transplantation, B16F0 and A375 melanoma cells were maintained as a monolayer in RPMI culture medium supplemented with 10% foetal calf serum and antibiotics and passaged with trypsinisation. Early passages were frozen and stored in liquid nitrogen. Cells were passaged to P=10 and then discarded. Frozen aliquots were grown in a monolayer culture to between 80-95% confluence and for transplantation were trypsinised and washed with Ca^2+ and Mg^2+ free phosphate buffered saline (PBS). For inoculation, B16F0 melanoma cells were resuspended in Ca^2+ and Mg^2+ free PBS at 3 or 5×10^6 viable cells per ml and 0.1 ml was subcutaneously injected at the left flank of 6-7 weeks old C57BL/6J mice. Eleven days later, tumours could be palpated in >98% of inoculated animals. A375 human melanoma cells were resuspended at 1×10^7 viablecells per ml and 0.1 ml was injected subcutaneously at the left flank of 6 weeks old BALB/c nude mice and 25-26 days later tumours could be palpated with ˜60% of inoculated animals developing tumours.
Eleven days (B16F0 melanoma) and 25 days (A375 human melanoma) after tumour transplantation, the [^18F]nicotinamides (0.5-1.5 MBq, 100 μl) and [^123I]nicotinamide (0.37-0.74 MBq, 100 μl) derivatives were injected intravenously via the tail vein into mice (15-18 g). Time points of 1, 3, 6, 24, 48, 72 h after injection were chosen for determining the distribution of each compound in various organs and tissues for the iodine-123 labelled compounds and between 15 min and 6 hours (e.g. 15 min, 30 min, 1 h, 2 h, 4 h or 6 h) were chosen for the ^18F-labelled compounds. At defined times post injection, groups of mice (n=5) were weighed, sacrificed by CO2 administration followed by cervical dislocation and dissected. Selected organs were weighed and their radioactivity measured with a γ-counter. The remaining activity in the carcass was also determined in order to obtain the total activity in the mouse at defined time points. The fraction of injected activity (% ID) in the organ was calculated by comparison with suitable dilutions of the injected dose. Then, the radioactivity concentration in the organ (% ID/g) was found by dividing the % ID for each organ by the weight of the organ.

uptake BLOOD (15 min): 0.68 % ID/g
uptake BONE (15 min): 3.89 % ID/g
uptake BRAIN (15 min): 0.84 % ID/g
uptake EYES (15 min): 11.27 % ID/g
uptake GIT (15 min): 8.23 % ID/g
uptake HEART (15 min): 2.49 % ID/g
uptake KIDNEY (15 min): 15.88 % ID/g
uptake LIVER (15 min): 30.69 % ID/g
uptake LUNGS (15 min): 12.06 % ID/g
uptake MUSCLE (15 min): 2.83 % ID/g
uptake SKIN (15 min): 2.53 % ID/g
uptake SPLEEN (15 min): 11.19 % ID/g
uptake STOMACH (15 min): 8.52 % ID/g
uptake THYROID (15 min): 10.16 % ID/g
uptake TUMOUR (15 min): 4.01 % ID/g
uptake BLOOD (1 h): 0.32 % ID/g
uptake BONE (1 h): 2.03 % ID/g
uptake BRAIN (1 h): 0.75 % ID/g
uptake EYES (1 h): 12.65 % ID/g
uptake GIT (1 h): 5.78 % ID/g
uptake HEART (1 h): 0.98 % ID/g
uptake KIDNEY (1 h): 4.64 % ID/g
uptake LIVER (1 h): 36.76 % ID/g
uptake LUNGS (1 h): 4.49 % ID/g
uptake MUSCLE (1 h): 1.00 % ID/g
uptake SKIN (1 h): 1.61 % ID/g
uptake SPLEEN (1 h): 7.38 % ID/g
uptake STOMACH (1 h): 3.31 % ID/g
uptake THYROID (1 h): 5.37 % ID/g
uptake TUMOUR (1 h): 4.79 % ID/g
uptake BLOOD (3 h): 0.21 % ID/g
uptake BONE (3 h): 1.41 % ID/g
uptake BRAIN (3 h): 0.57 % ID/g
uptake EYES (3 h): 14.28 % ID/g
uptake GIT (3 h): 4.18 % ID/g
uptake HEART (3 h): 0.71 % ID/g
uptake KIDNEY (3 h): 2.89 % ID/g
uptake LIVER (3 h): 32.81 % ID/g
uptake LUNGS (3 h): 3.08 % ID/g
uptake MUSCLE (3 h): 0.53 % ID/g
uptake SKIN (3 h): 1.09 % ID/g
uptake SPLEEN (3 h): 5.31 % ID/g
uptake STOMACH (3 h): 2.36 % ID/g
uptake THYROID (3 h): 2.92 % ID/g
uptake TUMOUR (3 h): 5.31 % ID/g
uptake BLOOD (6 h): 0.14 % ID/g
uptake BONE (6 h): 1.03 % ID/g
uptake BRAIN (6 h): 0.37 % ID/g
uptake EYES (6 h): 15.75 % ID/g
uptake GIT (6 h): 3.08 % ID/g
uptake HEART (6 h): 0.52 % ID/g
uptake KIDNEY (6 h): 1.80 % ID/g
uptake LIVER (6 h): 26.41 % ID/g
uptake LUNGS (6 h): 2.23 % ID/g
uptake MUSCLE (6 h): 0.36 % ID/g
uptake SKIN (6 h): 0.89 % ID/g
uptake SPLEEN (6 h): 4.11 % ID/g
uptake STOMACH (6 h): 1.79 % ID/g
uptake THYROID (6 h): 1.98 % ID/g
uptake TUMOUR (6 h): 5.29 % ID/g
SMILES: CCCCN(C)CCCCNC(=O)c1ccc(F)nc1 [[^18F]MEL4, 6-Fluoro-N-[4-(butyl(methyl)amino)butyl]nicotinamide]

uptake BLOOD (15 min): 2.8 % ID/g
uptake BONE (15 min): 4.8 % ID/g
uptake BRAIN (15 min): 6.2 % ID/g
uptake EYES (15 min): 36.7 % ID/g
uptake GIT (15 min): 7.8 % ID/g
uptake HEART (15 min): 3.7 % ID/g
uptake KIDNEY (15 min): 16.4 % ID/g
uptake LIVER (15 min): 12.2 % ID/g
uptake LUNGS (15 min): 5.0 % ID/g
uptake MUSCLE (15 min): 4.0 % ID/g
uptake SKIN (15 min): 2.7 % ID/g
uptake SPLEEN (15 min): 11.8 % ID/g
uptake STOMACH (15 min): 14.7 % ID/g
uptake THYROID (15 min): 4.5 % ID/g
uptake TUMOUR (15 min): 10.6 % ID/g
uptake BLOOD (1 h): 0.9 % ID/g
uptake BONE (1 h): 3.4 % ID/g
uptake BRAIN (1 h): 1.6 % ID/g
uptake EYES (1 h): 38.0 % ID/g
uptake GIT (1 h): 7.1 % ID/g
uptake HEART (1 h): 1.2 % ID/g
uptake KIDNEY (1 h): 4.0 % ID/g
uptake LIVER (1 h): 4.9 % ID/g
uptake LUNGS (1 h): 1.5 % ID/g
uptake MUSCLE (1 h): 1.2 % ID/g
uptake SKIN (1 h): 1.0 % ID/g
uptake SPLEEN (1 h): 9.2 % ID/g
uptake STOMACH (1 h): 6.8 % ID/g
uptake THYROID (1 h): 2.2 % ID/g
uptake TUMOUR (1 h): 14.6 % ID/g
uptake BLOOD (3 h): 0.2 % ID/g
uptake BONE (3 h): 4.6 % ID/g
uptake BRAIN (3 h): 0.4 % ID/g
uptake EYES (3 h): 36.3 % ID/g
uptake GIT (3 h): 7.1 % ID/g
uptake HEART (3 h): 0.3 % ID/g
uptake KIDNEY (3 h): 0.8 % ID/g
uptake LIVER (3 h): 1.9 % ID/g
uptake LUNGS (3 h): 0.3 % ID/g
uptake MUSCLE (3 h): 0.3 % ID/g
uptake SKIN (3 h): 0.2 % ID/g
uptake SPLEEN (3 h): 2.5 % ID/g
uptake STOMACH (3 h): 1.9 % ID/g
uptake THYROID (3 h): 2.1 % ID/g
uptake TUMOUR (3 h): 17.3 % ID/g
uptake BLOOD (6 h): 0.1 % ID/g
uptake BONE (6 h): 5.6 % ID/g
uptake BRAIN (6 h): 0.1 % ID/g
uptake EYES (6 h): 27.4 % ID/g
uptake GIT (6 h): 3.6 % ID/g
uptake HEART (6 h): 0.2 % ID/g
uptake KIDNEY (6 h): 0.2 % ID/g
uptake LIVER (6 h): 1.0 % ID/g
uptake LUNGS (6 h): 0.2 % ID/g
uptake MUSCLE (6 h): 0.2 % ID/g
uptake SKIN (6 h): 0.9 % ID/g
uptake SPLEEN (6 h): 0.5 % ID/g
uptake STOMACH (6 h): 0.7 % ID/g
uptake THYROID (6 h): 3.2 % ID/g
uptake TUMOUR (6 h): 4.8 % ID/g
SMILES: CCN(CC)CCNC(=O)c1cccnc1F [[^18F]MEL6, 2-Fluoro-N-[2-(diethylamino)ethyl]nicotinantide]

uptake BLOOD (15 min): 2.55 % ID/g
uptake BONE (15 min): 4.03 % ID/g
uptake BRAIN (15 min): 3.47 % ID/g
uptake EYES (15 min): 17.25 % ID/g
uptake GIT (15 min): 7.03 % ID/g
uptake HEART (15 min): 3.51 % ID/g
uptake KIDNEY (15 min): 19.45 % ID/g
uptake LIVER (15 min): 12.65 % ID/g
uptake LUNGS (15 min): 5.67 % ID/g
uptake MUSCLE (15 min): 4.16 % ID/g
uptake SKIN (15 min): 2.40 % ID/g
uptake SPLEEN (15 min): 10.27 % ID/g
uptake STOMACH (15 min): 13.20 % ID/g
uptake THYROID (15 min): 4.81 % ID/g
uptake TUMOUR (15 min): 6.99 % ID/g
uptake BLOOD (1 h): 0.77 % ID/g
uptake BONE (1 h): 1.52 % ID/g
uptake BRAIN (1 h): 1.37 % ID/g
uptake EYES (1 h): 23.66 % ID/g
uptake GIT (1 h): 2.85 % ID/g
uptake HEART (1 h): 1.14 % ID/g
uptake KIDNEY (1 h): 4.75 % ID/g
uptake LIVER (1 h): 3.19 % ID/g
uptake LUNGS (1 h): 1.81 % ID/g
uptake MUSCLE (1 h): 1.27 % ID/g
uptake SKIN (1 h): 0.88 % ID/g
uptake SPLEEN (1 h): 3.19 % ID/g
uptake STOMACH (1 h): 5.25 % ID/g
uptake THYROID (1 h): 2.22 % ID/g
uptake TUMOUR (1 h): 12.22 % ID/g
uptake BLOOD (3 h): 0.12 % ID/g
uptake BONE (3 h): 0.77 % ID/g
uptake BRAIN (3 h): 0.19 % ID/g
uptake EYES (3 h): 18.81 % ID/g
uptake GIT (3 h): 0.72 % ID/g
uptake HEART (3 h): 0.33 % ID/g
uptake KIDNEY (3 h): 0.45 % ID/g
uptake LIVER (3 h): 0.42 % ID/g
uptake LUNGS (3 h): 0.37 % ID/g
uptake MUSCLE (3 h): 0.28 % ID/g
uptake SKIN (3 h): 0.15 % ID/g
uptake SPLEEN (3 h): 2.32 % ID/g
uptake STOMACH (3 h): 0.82 % ID/g
uptake THYROID (3 h): 1.48 % ID/g
uptake TUMOUR (3 h): 8.80 % ID/g
uptake BLOOD (6 h): 0.06 % ID/g
uptake BONE (6 h): 0.43 % ID/g
uptake BRAIN (6 h): 0.07 % ID/g
uptake EYES (6 h): 16.49 % ID/g
uptake GIT (6 h): 0.23 % ID/g
uptake HEART (6 h): 0.17 % ID/g
uptake KIDNEY (6 h): 0.25 % ID/g
uptake LIVER (6 h): 0.60 % ID/g
uptake LUNGS (6 h): 0.14 % ID/g
uptake MUSCLE (6 h): 0.17 % ID/g
uptake SKIN (6 h): 0.29 % ID/g
uptake SPLEEN (6 h): 1.31 % ID/g
uptake STOMACH (6 h): 0.30 % ID/g
uptake THYROID (6 h): 1.02 % ID/g
uptake TUMOUR (6 h): 7.20 % ID/g
SMILES: CCN(CC)CCNC(=O)c1ccnc(F)c1 [[^18F]MEL8, 6-Fluoro-N-[2-(diethylamino)ethyl]isonicotinamide]
